Experimental findings from publication PMC2644789, “Dissection of Kinesin's Processivity” (PLoS ONE, 2009) are described below.

Common to all, as to type: biochemical, Neurospora crassa
For data set [1], the system named is T1, Head3/Neck1.
T1 construct: gene NcKin3; fusion in one polypeptide: NcKin3 residues 1-429 (motor and neck-linker) replacing the head of NcKin436 (NcKin head elsewhere 1-342); C-terminal PSIVHRKCF (cys) or hTail; dimer; with Kinesin heavy chain
As to the kind of experiment: stopped-flow light scattering, ATP-induced microtubule detachment. The settings on record: dissociation of preformed apyrase-treated kinesin-microtubule complex, 0.4 µM complex, 0-1000 µM ATP; read-out: Detachment / K0.5,ATP. The text has this: stopped-flow light scattering, ATP-induced microtubule detachment on Head3/Neck1

For a further data set, the system named is T2, Head1/Neck3.
T2 construct: gene NcKin; fusion in one polypeptide: NcKin residues 1-342 (motor and neck-linker) replacing the N-terminal 427 residues of NcKin3_558; C-terminal PSIVHRKCF (cys) or hTail; dimer; with Kinesin-3 motor protein NcKin3
As to the kind of experiment: coupled enzymatic steady-state ATPase assay. The settings on record: microtubule-activated (pig brain tubulin), 12.5 mM Aces-KOH, 25 mM potassium acetate, 5 mM MgCl2, EGTA, pH 6.8, 22°C; read-out: Steady state ATPase / KM,ATP. The text has this: coupled enzymatic steady-state ATPase assay on Head1/Neck3

The test system of data set [2] is T1, Head3/Neck1. As to the kind of experiment: coupled enzymatic steady-state ATPase assay. The settings on record: microtubule-activated (pig brain tubulin), 12.5 mM Aces-KOH, 25 mM potassium acetate, 5 mM MgCl2, EGTA, pH 6.8, 22°C; read-out: Steady state ATPase / KM,ATP. The text has this: coupled enzymatic steady-state ATPase assay on Head3/Neck1
Substrate in data set [3]: Nc1ncnc2c1ncn2[C@@H]1O[C@H](COP(=O)(O)OP(=O)(O)OP(=O)(O)O)[C@@H](O)[C@H]1O
As to the kind of experiment: coupled enzymatic steady-state ATPase assay. Particulars: microtubule-activated (pig brain tubulin), 12.5 mM Aces-KOH, 25 mM potassium acetate, 5 mM MgCl2, EGTA, pH 6.8, 22°C. From the text: coupled enzymatic steady-state ATPase assay on NcKin (NcKin436; wildtype reference)

For `Nc1ncnc2c1ncn2[C@@H]1O[C@H](COP(=O)(O)OP(=O)(O)OP(=O)(O)O)[C@@H](O)[C@H]1O` [ATP], the Km with Head3/Neck1 [1] amounted to 105 ± 26.6 µM; in the data set on Head1/Neck3, 33.1 ± 4.6 µM; in the data set on Head3/Neck1 [2] it was 49.1 ± 1.3 µM.

B1: NcKin (NcKin436; wildtype reference) (Neurospora crassa OR74A) (protein)
chain: MSSSANSIKVVARFRPQNRVEIESGGQPIVTFQGPDTCTVDSKEAQGSFTFDRVFDMSCKQSDIFDFSIKPTVDDILNGYNGTVFAYGQTGAGKSYTMMGTSIDDPDGRGVIPRIVEQIFTSILSSAANIEYTVRVSYMEIYMERIRDLLAPQNDNLPVHEEKNRGVYVKGLLEIYVSSVQEVYEVMRRGGNARAVAATNMNQESSRSHSIFVITITQKNVETGSAKSGQLFLVDLAGSEKVGKTGASGQTLEEAKKINKSLSALGMVINALTDGKSSHVPYRDSKLTRILQESLGGNSRTTLIINCSPSSYNDAETLSTLRFGMRAKSIKNKAKVNAELSPAELKQMLAKAKTQITSFENYIVNLESEVQVWRGGETVPKEKWVPPLELAITPSKSASTTARPSTPSRLLPESRAETPAISDRAGTPSLPLDKDE
notes: C-terminally truncated NcKin436 (motor, neck-linker, neck coiled coil, partial stalk), expressed from pT7 vector; C-terminal reactive-cysteine peptide … or hTail; dimer
Regarding B1, in data set [3], the Km worked out at 64.5 ± 20.4 µM and the kcat stood at 66.9 ± 18.1 s⁻¹.

The kcat is the maximal rate divided by the concentration of active sites.
